Data published in ChEMBL document CHEMBL1201862, “PubChem BioAssay data set” (2004).
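Interpolation was linear, between the two tested concentrations surrounding the appropriate level; five concentrations were tested over 48 hours in 96-well plates. The concentration for 50% growth inhibition is given as GI50.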 Active and inactive are the calls of the source. Rule as the data show it: active = GI50 up to about 1.1 µM and inactive = higher.

Key:
Experiment in all cases: inhibition of tumour cell growth, NCI panel, 48 h
OVCAR-5 = system: OVCAR-5
CCRF-CEM = system: CCRF-CEM
SNB-75 = system: SNB-75
SF-268 = system: SF-268
TK-10 = system: TK-10
HCT-116 = system: HCT-116
NCI-H460 = system: NCI-H460
HCC 2998 = system: HCC 2998
ACHN = system: ACHN
K562 = system: K562
LOX IMVI = system: LOX IMVI
A498 = system: A498
HL-60 = system: HL-60
OVCAR-3 = system: OVCAR-3
RPMI-8226 = system: RPMI-8226
SR = system: SR
SNB-19 = system: SNB-19
EKVX = system: EKVX
Hs-578T = system: Hs-578T

Measured: GI50

Cc1ccc(/N=N/C(=O)NNc2ccc(C)cc2Br)c(Br)c1
inactive: OVCAR-5 19.4 µM | CCRF-CEM 2.58 µM | SNB-75 40.8 µM | SF-268 25.8 µM | TK-10 31.1 µM | HCT-116 10.9 µM | NCI-H460 17.3 µM | HCC 2998 16.4 µM | ACHN 26.7 µM | K562 16.4 µM | LOX IMVI 18 µM | A498 26.9 µM | HL-60 18.7 µM | OVCAR-3 19.9 µM | RPMI-8226 20 µM | SR 14.7 µM | SNB-19 32.5 µM

CC[C@]1(Cc2ccc(OC)c(OC)c2)C2CC(C(=O)OC)ON2O[C@H](OCc2ccccc2)[C@@H]1OC(C)=O (stereo not given in full)
inactive: OVCAR-5 > 100 µM | CCRF-CEM > 100 µM | SNB-75 > 100 µM | TK-10 > 100 µM | HCT-116 > 100 µM | EKVX > 100 µM | NCI-H460 > 100 µM | HCC 2998 39.2 µM | ACHN > 100 µM | K562 > 100 µM | LOX IMVI > 100 µM | A498 > 100 µM | HL-60 26.1 µM | OVCAR-3 > 100 µM | RPMI-8226 98.6 µM | SR > 100 µM | SNB-19 > 100 µM

COc1cc(/C=C/C(=O)OC[C@H](Br)[C@H](OC(C)=O)c2ccc3c(c2)OCO3)cc(OC)c1OC
inactive: OVCAR-5 > 100 µM | CCRF-CEM > 100 µM | SF-268 > 100 µM | TK-10 > 100 µM | HCT-116 > 100 µM | EKVX > 100 µM | HCC 2998 80.4 µM | ACHN > 100 µM | K562 > 100 µM | LOX IMVI > 100 µM | A498 > 100 µM | OVCAR-3 > 100 µM | RPMI-8226 61.1 µM | SR 48.8 µM | SNB-19 > 100 µM

COc1cc(/C=C/C(=O)CC(=O)/C=C/c2ccc(OC(=O)CCCCC3CCSS3)c(OC)c2)ccc1OC(=O)CCCCC1CCSS1 (stereo not given)
inactive: OVCAR-5 > 100 µM | CCRF-CEM > 100 µM | SNB-75 > 100 µM | SF-268 > 100 µM | Hs-578T > 100 µM | TK-10 > 100 µM | HCT-116 > 100 µM | EKVX > 100 µM | NCI-H460 > 100 µM | ACHN > 100 µM | K562 > 100 µM | LOX IMVI > 100 µM | HL-60 > 100 µM | OVCAR-3 > 100 µM | RPMI-8226 > 100 µM | SNB-19 > 100 µM

CC(C)[Si](OC1=C(C(=O)N(C)c2ccccc2Cl)CCC1)(C(C)C)C(C)C
inactive: OVCAR-5 9.64 µM | SNB-75 13.3 µM | SF-268 18.5 µM | TK-10 17.8 µM | HCT-116 19.5 µM | EKVX 16.9 µM | NCI-H460 22.4 µM | ACHN 19.9 µM | LOX IMVI 19.2 µM | A498 15.6 µM | OVCAR-3 16.7 µM | RPMI-8226 19.2 µM | SNB-19 15.8 µM

Cc1cc(Cc2cc(C)c(N)cc2N)c(N)cc1N
inactive: OVCAR-5 > 100 µM | SNB-75 > 100 µM | SF-268 89.3 µM | TK-10 > 100 µM | HCT-116 > 100 µM | EKVX > 100 µM | NCI-H460 77.3 µM | ACHN > 100 µM | K562 > 100 µM | LOX IMVI 81.5 µM | A498 > 100 µM | HL-60 > 100 µM | OVCAR-3 > 100 µM | RPMI-8226 > 100 µM | SNB-19 > 100 µM

CN(C(=O)C1=CCC2(CC1)OCCO2)c1ccccc1OS(=O)(=O)C(F)(F)F
inactive: OVCAR-5 > 100 µM | CCRF-CEM 43.2 µM | SNB-75 15.5 µM | SF-268 8.26 µM | HCT-116 > 100 µM | EKVX > 100 µM | NCI-H460 85.3 µM | HCC 2998 > 100 µM | ACHN > 100 µM | K562 > 100 µM | LOX IMVI 59.7 µM | A498 > 100 µM | HL-60 > 100 µM | OVCAR-3 > 100 µM | RPMI-8226 > 100 µM | SR > 100 µM | SNB-19 > 100 µM
